Key:
[1] = tested on: HepG2 liver cancer cells; test: qRT-PCR expression of CIDE, AMPK pathway and PPAR pathway genes in FFA-treated HepG2 cells; format: cell-based, human; settings: 1 mM/L FFA, 5 μM/L artesunate, 24 h
Protocol: Experimental methods: HepG-2 liver cancer cells with passage times less than 20 times were selected and inoculated into a 12-well plate at a density of 3×10^5 cells/mL. Drug treatment was performed after inoculating for 24 h, and the cells were divided into 3 groups with 4 wells in each group. A complete medium containing 1% bovine serum albumin (BSA) was used as the control group. A complete medium containing 1% BSA and 1 mM/L FFA was used as the high-fat model group. A complete medium containing 1% BSA, 1 mM/L FFA, and 5 μM/L, artesunate was used as the artesunate group. After being treated for 24 h, the cells were collected, and RNA was extracted and reverse-transcribed into cDNA. Quantitative real-time PCR (qRT-PCR) was used to detect the expression of CIDE series genes. AMPK signaling pathway-related genes, and PPAR signaling pathway-related genes in the three groups of cells.

[2] = tested on: HepG2 liver cancer cells; test: Lipid accumulation (triglyceride content, Nile red lipid droplets) in FFA-treated HepG2 liver cancer cells; format: cell-based, human; settings: 1 mM/L FFA, 5 μM/L artesunate, 24 h, vs model group
[3] = tested on: C57 mice fed with 10% lard and 5% fructose; test: Expression of lipid metabolism-related genes in liver tissue of mice on high-fat and high-sugar diet; format: in vivo; settings: artemisinin 100 mg/kg for 12 weeks, FIGS. 10A-10I
Protocol: C57 mice were selected and fed with feedstuffs that were added with 10% lard and 5% fructose. After 12 weeks, the mice suffered from liver metabolism disruption, generated insulin resistance, and were stuck in mitochondrial dysfunction in liver cells, thus resulting in a decrease in fatty acid β-oxidation capacity and fat accumulation in the liver, and inflammation and fibrosis were produced. Artemisinin was given at a dosage of 100 mg/kg from the 13th week as a treatment for 12 weeks. At the end of the experiment, the mice were dissected to obtain livers. A part of the livers was subjected to HE staining and Oli red O staining to quantify the liver lipids and conduct a pathological scoring of liver steatosis of the mice based on the steatosis activity fibrosis (SAF) scoring system. […] A part of the livers of the mice in each group mentioned above was taken, RNA and protein were extracted, and the study of the expression of related genes and proteins was conducted to detect the expression levels of lipid metabolism-related genes in liver tissue.

[4] = tested on: C57 mice fed with 10% lard and 5% fructose; test: Expression of autophagy-related proteins (TOR, LC3) in liver of mice on high-fat and high-sugar diet; format: in vivo; settings: artemisinin 100 mg/kg for 12 weeks, FIGS. 11A-11G
Protocol: (§1) C57 mice were selected and fed with feedstuffs that were added with 10% lard and 5% fructose. After 12 weeks, the mice suffered from liver metabolism disruption, generated insulin resistance, and were stuck in mitochondrial dysfunction in liver cells, thus resulting in a decrease in fatty acid β-oxidation capacity and fat accumulation in the liver, and inflammation and fibrosis were produced. Artemisinin was given at a dosage of 100 mg/kg from the 13th week as a treatment for 12 weeks. At the end of the experiment, the mice were dissected to obtain livers. A part of the livers was subjected to HE staining and Oli red O staining to quantify the liver lipids and conduct a pathological scoring of liver steatosis of the mice based on the steatosis activity fibrosis (SAF) scoring system.
A part of the livers of the mice in each group mentioned above was taken, RNA and protein were extracted, and the study of the expression of related genes and proteins was conducted to detect the expression levels of lipid metabolism-related genes in liver tissue.
Target of rapamycin (TOR) is a key protein in the control of autophagy, which can sense various change signals of cells and strengthen or reduce the occurrence level of autophagy.

[5] = tested on: C57 mice fed with 10% lard and 5% fructose; test: Liver pathology (HE, Oil red O staining, SAF scoring) in mice on high-fat and high-sugar diet; format: in vivo; settings: vs high-fat group
Protocol: as §1

[6] = tested on: C57 mice fed with 10% lard and 5% fructose; test: Serum enzyme detection in mice on high-fat and high-sugar diet; format: in vivo; settings: artemisinin 100 mg/kg for 12 weeks, vs high-fat diet
Protocol: as §1, with “system. […] The serum of each group of mice mentioned above was taken and subjected to serum enzyme detection.” for “system.”

[7] = vs model group, p<0.001, FIG. 7

SMILES	expression of SREBP1c-ACC/SCD1/FAS genes related to intracellular fatty acid synthesis ([1]; FIG. 5)	mRNA level of PPARct. [1, 7]	mRNA level of PPARy [1, 7]	mRNA level of AMPKα (PRKAA1) ([1]; vs model group, p<0.01, FIG. 4)	mRNA level of carnitine palmitoyl transferase 1 (CPT-1) ([1]; vs model group, p<0.01, FIG. 6)	mRNA expression of Cide-a gene ([1]; vs model group, FIG. 3)	mRNA expression of Cide-b gene ([1]; vs model group, FIG. 3)	content of triglyceride (TG) in HepG2 liver cancer cells ([2]; FIG. 1)	number of large lipid droplets (Nile red staining) ([2]; FIGS. 2A-2B)	upstream gene expression levels of genes related to lipid synthesis in liver [3]	mitochondrial dysfunction and autophagy (mitophagy) level in liver [4]	score of lobular inflammation (SAF scoring system) ([5]; artemisinin 100 mg/kg for 12 weeks, FIG. 9C)	score of ballooning of liver cells (SAF scoring system) ([5]; artemisinin 100 mg/kg for 12 weeks, FIG. 9D)	liver steatosis (fat blebs, Oil red O staining areas) ([5]; artemisinin 100 mg/kg from the 13th week for 12 weeks, FIG. 8)	ALT level in the serum ([6]; FIG. 9E)	AST level in the serum ([6]; FIG. 9F)
C[C@H]1[C@H](OC(=O)CCC(=O)O)O[C@@H]2O[C@@]3(C)CC[C@H]4[C@H](C)CC[C@@H]1[C@@]24OO3 [artesunate]	reduce the expression	significantly up-regulated	significantly up-regulated	significantly up-regulated	significantly up-regulated	significantly lower	significantly lower	significantly decreased	decreased							
C[C@@H]1CC[C@H]2[C@@H](C)C(=O)O[C@@H]3O[C@@]4(C)CC[C@@H]1[C@]32OO4 [artemisinin]										inhibited	effectively resist the mitochondrial dysfunction and the decrease in the autophagy level	significantly reduced	significantly reduced	significantly improve liver steatosis	significantly reduce the elevation	significantly reduce the elevation

— patent publication US20230226018A1, “APPLICATION OF COMPOUND USING INTRA-CYCLIC PEROXO-BRIDGED SESQUITERPENES AS PARENT NUCLEUS IN METABOLISM-RELATED FATTY LIVER DISEASES” (SHANGHAI JIAO TONG UNIVERSITY, priority 2021, published 2023)
